The subject of test [1] is Group A streptococcus (GAS). In words: GAS attachment to murine keratinocyte cell line PAM2.12 with exogenous hyaluronic acid. It counts as cell-based, Streptococcus pyogenes. The following applies: for inhibition of GAS attachment to PAM2.12 keratinocytes: polysaccharide added together with GAS, 45 minutes incubation. The protocol:
For bacterial adherence assays, keratinocytes were seeded at 10^5 cells per well in collagen-coated tissue culture wells (Nalge Nunc International, Naperville, Ill.), incubated for 3 days at 34° C. in 8% CO2, washed, and overlaid with medium containing 10^6 CFU of GAS per well. After incubation for 1 hour at 34° C. in 8% CO2 the keratinocyte monolayers were washed twice to remove nonadherent bacteria, then the number of cell-associated bacteria was determined by quantitative culture after releasing the keratinocytes with trypsin and lysing them in sterile water, experiments testing the effects of exogenous hyaluronic acid on GAS adherence were performed using the mouse keratinocyte cell line, PAM 2.12 (Song, I. S. 2000, Exp. Dermatol. 9:42-52). Cells were seeded in collagen-coated tissue culture wells at 10^5 cells per well, cultured for 3 days at 37° C. in 5% CO2, then inoculated with 10^6 CFU of GAS per well in medium containing exogenous hyaluronic acid (from rooster comb, Sigma Chemicals, St. Louis, Mo.), no inhibitor, or a control polysaccharide, alginic acid, a high-molecular-weight polymer of mannuronic acid and guluronic acid (Protonal Durvillea Alginate, Pronova. Biopolymer, Inc., Portsmouth, N.H.). Cells were incubated for 45 minutes at 37° C. in 5% CO2, then processed for enumeration of adherent bacteria as described above. In experiments to test whether exogenous hyaluronic acid could promote dissociation of GAS attached to keratinocytes, GAS were allowed to attach to keratinocytes in the absence of inhibitor; […], no inhibitor, or alginic acid. After 45 minutes of incubation, the number of adherent bacteria was enumerated as described above.
To investigate the specificity of the interaction between the GAS capsule and CD44 on epithelial cells, the ability of exogenous hyaluronic acid to compete with GAS for binding to murine keratinocytes was examined. Addition of exogenous hyaluronic acid inhibited GAS attachment to the murine keratinocyte cell line PAM2.12 by >95% (P<0.03, FIG. 5). Alginic acid, another high molecular weight acidic polysaccharide, had no effect, supporting the hypothesis that adherence depends on a specific interaction between the GAS hyaluronic acid capsule and CD44.

In test [2] the test system is Group A Streptococcus (GAS, strain 950771). In words: Bacterial binding to human keratinocyte monolayers after pre-incubation, GAS. It counts as cell-based, Streptococcus pyogenes. The following applies: 10 bacteria per keratinocyte, 1 hour, alginate control. On the procedure: (§1) Keratinocyte monolayers were pre-incubated with alginate (AL, solid bars) or hyaluronic cid (HA, hatched bars) prior to surface inoculation with either Group A Streptococcus (GAS, strain 950771), Group B Streptococcus (GBS, strain 515), Streptococcus pneumoniae (S. pneumo, type 6), or Staphylococcus aureus (S. aureus, type 8) at a multiplicity of infection of 10 bacteria per keratinocyte for 1 hour.

The test system of test [3] is Streptococcus pneumoniae (S. pneumo, type 6). In words: Bacterial binding to human keratinocyte monolayers after pre-incubation, S. pneumoniae. It counts as cell-based. The following applies: 10 bacteria per keratinocyte, 1 hour, alginate control. The protocol: as §1
For test [4], the system named is Staphylococcus aureus (S. aureus, type 8). The test can be described thus: Bacterial binding to human keratinocyte monolayers after pre-incubation, S. aureus. It counts as cell-based. The following applies: 10 bacteria per keratinocyte, 1 hour, alginate control. On the procedure:
as §1

Test [5] has as its system Group A streptococcus (GAS). The test can be described thus: GAS pharyngeal colonization in mice after intranasal pretreatment with hyaluronic acid. It counts as in vivo, Streptococcus pyogenes. The following applies: intranasal 20 μl of 1 mg/ml, 5 hours prior to GAS inoculation, compared to PBS or alginic acid pretreated, 3 days. The protocol: For pharyngeal colonization experiments, 4 to 6 week-old female mice were anesthetized by inhalation of methoxyflurane, then inoculated intranasally with approximately 5×10^6 CFU of GAS in 20 μl phosphate-buffered saline, pH 7.4. Throat swabs were collected from anesthetized mice daily and were plated on Todd-Hewitt-blood agar containing streptomycin 500 μg/ml to inhibit growth of normal flora. For some experiments, the bacterial inoculum was suspended in phosphate-buffered saline containing 50μg of mAb, either KM81, a rat anti-mouse CD44 mAb (Miyake, K. 1990, J. Exp. Med. 171:477-488), or 4H1, an isotype-matched control monoclonal antibody directed to Pseudomonas aeruginosa lipopolysaccharide (donated by Michael Preston, Brigham and Women's Hospital, Boston, Mass.). Both antibodies were purified by protein G affinity chromatography (GammaBind Plus Sepharose, Amersham Pharmacia Biotech, Piscataway, N.J.) prior to use.
Differences in attachment of GAS to keratinocytes were evaluated Using the Mann Whitney U test (Instat version 1.12, GraphPad Software, Inc. San Diego, Calif.). Repeated measures logistic regression was used to test for the effect of anti-CD44 mAb or erogenous hyaluronic acid treatment on the proportion of mice with positive throat cultures over three days of observation (Zeger, S. L. et al. 1986, Biometrics. 42:121-130). […]

In test [6] the test system is Group B Streptococcus (GBS, strain 515). In words: Bacterial binding to human keratinocyte monolayers after pre-incubation, GBS. It counts as cell-based. The following applies: 10 bacteria per keratinocyte, 1 hour, alginate control. The protocol: as §1

On to alginic acid, for which, in test [1], the “inhibition of GAS attachment to PAM2.12 keratinocytes” value was “had no effect”.
With hyaluronic acid, the “inhibition of binding of GAS to human keratinocytes” value in test [2] was “more than 80%”. Moreover, the “inhibition of binding of S. pneumoniae to human keratinocytes” value in test [3] is recorded as “more than 80%”. Also, the “inhibition of binding of S. aureus to human keratinocytes” value in test [4] is recorded as “more than 80%”. Further, in test [1] (addition of hyaluronic acid delayed for 2 hours), the “reduction of GAS attachment to keratinocytes” value is 70-80%. Besides, the “reduction in bacterial attachment to keratinocytes” value in test [1] (hyaluronic acid added up to 45 minutes after adding GAS) is recorded as above 90%. Besides, the “inhibition of GAS attachment to PAM2.12 keratinocytes” value in test [1] is on record as above 95%. The “reduction of GAS pharyngeal colonization (positive throat cultures)” value in test [5] is given as 60 to 80%. The “inhibition of binding of GBS to human keratinocytes” value in test [6] is given as “more than 80%”.

Values taken from US20020055488A1, “Prevention and treatment of streptococcal and staphylococcal infection” (priority 2000, published 2002).
